# Data: US11566022B2, “3-(5-methoxy-1-oxoisoindolin-2-yl)piperidine-2,6-dione derivatives and uses thereof” (NOVARTIS AG, priority 2019, dated 2023)
# Like-named read-outs stand apart in the source and are kept apart here.
# Molecular target: HiBit-WIZ fusion protein (Homo sapiens, UniProt O95785+Q96SW2)
# Assay: Quantification of WIZ protein levels in HiBit tag fusion protein assay (WIZ HiBit assay in 293T cells)
# Assay type: cell-based
# Parameters: Dmax: dose or concentration left out as unconfirmed
# [1] = HEK-293T, 100 minus Amax; 293T cells; read-out: % degradation of WIZ (100-Amax)
# [2] = HEK-293T, DMSO-normalized, curve-fitted percentage of WIZ-HiBit remaining at 25 uM; 293T cells; read-out: WIZ Amax
# [3] = WIZ HiBit assay in 293T cells; 10-point, 5-fold dose response, highest concentration 25 μM, about 18 hours; read-out: WIZ AC50
# Chain of HiBit-WIZ fusion protein (O95785 whole entry, the tested form may be a part): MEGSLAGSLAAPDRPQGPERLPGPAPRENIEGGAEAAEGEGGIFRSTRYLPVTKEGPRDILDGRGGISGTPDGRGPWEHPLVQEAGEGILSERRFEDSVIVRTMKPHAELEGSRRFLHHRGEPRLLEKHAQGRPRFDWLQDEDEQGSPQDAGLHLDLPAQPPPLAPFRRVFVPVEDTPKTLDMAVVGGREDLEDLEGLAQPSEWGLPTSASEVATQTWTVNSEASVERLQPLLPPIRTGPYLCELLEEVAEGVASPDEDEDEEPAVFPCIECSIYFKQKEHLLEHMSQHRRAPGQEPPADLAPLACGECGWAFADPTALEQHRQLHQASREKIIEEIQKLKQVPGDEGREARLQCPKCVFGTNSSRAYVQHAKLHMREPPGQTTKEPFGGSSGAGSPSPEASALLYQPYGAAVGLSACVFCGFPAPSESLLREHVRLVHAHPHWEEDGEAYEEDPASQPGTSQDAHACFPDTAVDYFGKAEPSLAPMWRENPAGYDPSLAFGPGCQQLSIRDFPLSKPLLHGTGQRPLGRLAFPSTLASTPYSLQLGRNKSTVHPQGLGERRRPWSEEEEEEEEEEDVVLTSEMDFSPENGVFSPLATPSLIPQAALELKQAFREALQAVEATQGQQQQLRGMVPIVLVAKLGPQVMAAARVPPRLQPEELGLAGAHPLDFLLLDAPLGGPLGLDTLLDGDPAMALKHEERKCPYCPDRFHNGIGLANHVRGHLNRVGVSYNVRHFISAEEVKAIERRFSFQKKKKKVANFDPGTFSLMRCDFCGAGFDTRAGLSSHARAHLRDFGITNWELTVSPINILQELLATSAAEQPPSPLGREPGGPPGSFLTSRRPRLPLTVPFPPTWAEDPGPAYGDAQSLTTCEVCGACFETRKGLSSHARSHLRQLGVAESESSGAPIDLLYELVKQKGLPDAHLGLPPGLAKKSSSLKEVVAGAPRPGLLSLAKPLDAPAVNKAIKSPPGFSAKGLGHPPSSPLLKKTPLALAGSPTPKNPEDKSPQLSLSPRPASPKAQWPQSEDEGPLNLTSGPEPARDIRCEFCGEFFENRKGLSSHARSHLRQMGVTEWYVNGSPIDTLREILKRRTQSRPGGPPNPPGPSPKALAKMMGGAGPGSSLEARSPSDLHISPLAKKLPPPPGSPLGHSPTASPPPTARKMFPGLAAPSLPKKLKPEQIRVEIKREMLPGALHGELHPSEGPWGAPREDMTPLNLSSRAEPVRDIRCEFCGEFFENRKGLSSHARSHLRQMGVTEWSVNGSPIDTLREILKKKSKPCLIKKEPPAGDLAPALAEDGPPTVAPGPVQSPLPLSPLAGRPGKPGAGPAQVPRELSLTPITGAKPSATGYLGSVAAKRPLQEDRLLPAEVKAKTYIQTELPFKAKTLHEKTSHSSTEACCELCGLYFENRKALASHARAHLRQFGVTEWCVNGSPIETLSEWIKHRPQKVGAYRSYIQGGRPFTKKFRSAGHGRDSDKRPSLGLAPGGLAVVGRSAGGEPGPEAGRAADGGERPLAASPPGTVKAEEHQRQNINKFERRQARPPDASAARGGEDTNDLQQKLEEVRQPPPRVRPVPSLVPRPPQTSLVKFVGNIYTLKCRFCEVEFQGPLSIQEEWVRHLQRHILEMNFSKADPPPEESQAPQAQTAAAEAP
# Chain of HiBit-WIZ fusion protein (Q96SW2 whole entry, the tested form may be a part): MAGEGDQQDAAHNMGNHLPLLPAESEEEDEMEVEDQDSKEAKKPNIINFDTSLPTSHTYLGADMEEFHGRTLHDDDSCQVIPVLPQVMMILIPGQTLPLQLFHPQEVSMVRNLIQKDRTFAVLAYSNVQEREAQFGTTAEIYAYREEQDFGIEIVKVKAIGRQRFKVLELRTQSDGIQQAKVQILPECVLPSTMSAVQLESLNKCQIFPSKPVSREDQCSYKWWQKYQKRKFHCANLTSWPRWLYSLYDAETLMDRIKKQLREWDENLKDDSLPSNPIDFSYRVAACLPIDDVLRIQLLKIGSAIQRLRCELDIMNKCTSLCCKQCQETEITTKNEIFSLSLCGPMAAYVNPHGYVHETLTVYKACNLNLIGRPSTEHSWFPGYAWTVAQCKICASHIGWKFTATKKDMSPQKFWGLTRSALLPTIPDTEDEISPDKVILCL
# Chain of HiBit-WIZ fusion protein (Q16531 whole entry partner, the tested form may be a part): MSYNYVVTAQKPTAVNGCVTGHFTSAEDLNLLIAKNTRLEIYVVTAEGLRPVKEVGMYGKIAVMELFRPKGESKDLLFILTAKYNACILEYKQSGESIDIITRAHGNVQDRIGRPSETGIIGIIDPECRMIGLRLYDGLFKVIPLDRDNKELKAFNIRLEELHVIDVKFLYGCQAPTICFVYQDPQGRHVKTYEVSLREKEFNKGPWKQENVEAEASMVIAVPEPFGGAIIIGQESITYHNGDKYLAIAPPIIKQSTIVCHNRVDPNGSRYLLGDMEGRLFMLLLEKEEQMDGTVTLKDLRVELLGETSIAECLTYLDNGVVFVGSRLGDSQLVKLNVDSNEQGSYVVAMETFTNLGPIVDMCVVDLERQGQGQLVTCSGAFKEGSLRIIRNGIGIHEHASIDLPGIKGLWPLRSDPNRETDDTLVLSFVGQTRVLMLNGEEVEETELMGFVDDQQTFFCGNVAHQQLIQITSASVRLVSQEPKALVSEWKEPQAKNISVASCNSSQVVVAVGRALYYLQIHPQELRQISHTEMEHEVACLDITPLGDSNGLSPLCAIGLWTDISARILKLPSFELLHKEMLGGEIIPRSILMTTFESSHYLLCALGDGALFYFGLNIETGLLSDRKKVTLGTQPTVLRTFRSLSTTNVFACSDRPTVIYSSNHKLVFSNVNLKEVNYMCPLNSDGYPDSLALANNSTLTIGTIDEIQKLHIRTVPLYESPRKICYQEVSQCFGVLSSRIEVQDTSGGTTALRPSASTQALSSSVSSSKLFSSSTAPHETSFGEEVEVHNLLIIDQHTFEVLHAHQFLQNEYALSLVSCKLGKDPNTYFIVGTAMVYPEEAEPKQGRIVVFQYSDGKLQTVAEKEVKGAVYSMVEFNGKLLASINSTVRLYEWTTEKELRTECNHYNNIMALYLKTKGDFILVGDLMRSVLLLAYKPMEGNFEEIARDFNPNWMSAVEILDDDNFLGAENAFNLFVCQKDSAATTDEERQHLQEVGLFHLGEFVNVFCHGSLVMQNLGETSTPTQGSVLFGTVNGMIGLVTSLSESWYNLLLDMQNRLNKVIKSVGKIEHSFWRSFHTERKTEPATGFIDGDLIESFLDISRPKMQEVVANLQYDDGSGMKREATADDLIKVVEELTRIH
Dmax [1] [%],remaining activity at up to 25 µM [2] [%],DC50 [3] [µM],"Dmax (HEK-293T, read-out: % degradation of WIZ (100-Amax)) [%]","remaining activity (HEK-293T, read-out: WIZ Amax) [%]","DC50 (read-out: WIZ AC50; WIZ HiBit assay in 293T cells; 10-point, 5-fold dose response, highest concentration 25 μM, about 18 hours) [µM]",SMILES
71.1,28.9,4.41,–,–,–,Cc1nc[nH]c1CN1CCCC[C@@H]1COc1ccc2c(c1)CN(C1CCC(=O)NC1=O)C2=O (stereo partly drawn) [Compound I-50cs]
80.2,19.8,0.133,–,–,–,O=C1CCC(N2Cc3cc(OC[C@H]4CCCCN4Cc4cnn(-c5cnccn5)c4)ccc3C2=O)C(=O)N1 (stereo partly drawn) [Compound I-50ct]
42.6,57.4,> 25,–,–,–,O=C1CCC(N2Cc3cc(OC[C@@H]4CCCCN4Cc4ccnc(O)c4)ccc3C2=O)C(=O)N1 (stereo partly drawn) [Compound I-50cv]
39,61,> 25,–,–,–,Cn1c(CN2CCCC[C@@H]2COc2ccc3c(c2)CN(C2CCC(=O)NC2=O)C3=O)nc2ccccc21 (stereo partly drawn) [Compound I-50cw]
92.6,7.4,0.143,–,–,–,O=C1CCC(N2Cc3cc(OC[C@@H]4CCCCN4Cc4ccnc5[nH]ccc45)ccc3C2=O)C(=O)N1 (stereo partly drawn) [Compound I-50cx]
89,11,0.922,–,–,–,CCc1nc(C)c(CN2CCCC[C@H]2COc2ccc3c(c2)CN(C2CCC(=O)NC2=O)C3=O)[nH]1 (stereo partly drawn) [Compound I-50cy]
49.8,50.2,> 25,–,–,–,COC(=O)[C@@H]1CC[C@H](CN2CCCC[C@H]2COc2ccc3c(c2)CN(C2CCC(=O)NC2=O)C3=O)C1 (stereo partly drawn) [Compound I-50cz]
78.3,21.7,0.784,–,–,–,COc1ccccc1CN1CCCC[C@H]1COc1ccc2c(c1)CN(C1CCC(=O)NC1=O)C2=O (stereo partly drawn) [Compound I-50d]
65.1,34.9,5.13,–,–,–,O=C(O)Cn1cnc(CN2CCCC[C@@H]2COc2ccc3c(c2)CN(C2CCC(=O)NC2=O)C3=O)c1 (stereo partly drawn) [Compound I-50da]
39.8,60.2,> 25,–,–,–,COC(=O)c1nn(-c2cccc(C(F)(F)F)c2)cc1CN1CCCC[C@@H]1COc1ccc2c(c1)CN(C1CCC(=O)NC1=O)C2=O (stereo partly drawn) [Compound I-50dc]
39.6,60.4,> 25,–,–,–,O=C1CCC(N2Cc3cc(OC[C@H]4CCCCN4Cc4ccccc4Cn4cncn4)ccc3C2=O)C(=O)N1 (stereo partly drawn) [Compound I-50dd]
–,–,–,58.5,41.5,18.4,NS(=O)(=O)c1ccc(CN2CCCC[C@H]2COc2ccc3c(c2)CN(C2CCC(=O)NC2=O)C3=O)cc1 (stereo partly drawn) [Compound I-50de]
55.9,44.1,11.1,–,–,–,Cn1cncc1CN1CCCC[C@@H]1COc1ccc2c(c1)CN(C1CCC(=O)NC1=O)C2=O (stereo partly drawn) [Compound I-50df]
16.1,83.9,> 25,–,–,–,O=C1CCC(N2Cc3cc(OC[C@@H]4CCCCN4Cc4ncccc4O)ccc3C2=O)C(=O)N1 (stereo partly drawn) [Compound I-50dg]
66.9,33.1,6.53,–,–,–,CCc1nc(C)c(CN2CCCC[C@@H]2COc2ccc3c(c2)CN(C2CCC(=O)NC2=O)C3=O)[nH]1 (stereo partly drawn) [Compound I-50dh]
79,21,1.18,–,–,–,CN(C)Cc1ncc(-c2ccc(Oc3cc(Cl)cnc3CN3CCCC[C@@H]3COc3ccc4c(c3)CN(C3CCC(=O)NC3=O)C4=O)cc2)n1C (stereo partly drawn) [Compound I-50di]
99.7,0.3,2.45,–,–,–,Cc1cccc(-c2n[nH]cc2CN2CCCC[C@@H]2COc2ccc3c(c2)CN(C2CCC(=O)NC2=O)C3=O)c1 (stereo partly drawn) [Compound I-50dj]
87,13,0.147,–,–,–,O=C1CCC(N2Cc3cc(OC[C@H]4CCCCN4Cc4ccnc5[nH]ccc45)ccc3C2=O)C(=O)N1 (stereo partly drawn) [Compound I-50dk]

Dmax [1] [%],remaining activity at up to 25 µM [2] [%],DC50 [3] [µM],"Dmax (HEK-293T, read-out: % degradation of WIZ (100-Amax)) [%]","remaining activity (HEK-293T, read-out: WIZ Amax) [%]","DC50 (read-out: WIZ AC50; WIZ HiBit assay in 293T cells; 10-point, 5-fold dose response, highest concentration 25 μM, about 18 hours) [µM]",SMILES
100,0,0.007,–,–,–,Cn1nc(CN2CCCC[C@@H]2COc2ccc3c(c2)CN(C2CCC(=O)NC2=O)C3=O)cc1-c1ccccc1 (stereo partly drawn) [Compound I-50dm]
21.2,78.8,> 25,–,–,–,N#Cc1cc(CN2CCCC[C@@H]2COc2ccc3c(c2)CN(C2CCC(=O)NC2=O)C3=O)ccn1 (stereo partly drawn) [Compound I-50dn]
99.9,0.1,0.002,–,–,–,O=C1CCC(N2Cc3cc(OC[C@H]4CCCCN4Cc4cccc(N5CCCC5)c4)ccc3C2=O)C(=O)N1 (stereo partly drawn) [Compound I-50do]
65.5,34.5,6.84,–,–,–,O=C1CCC(N2Cc3cc(OC[C@H]4CCCCN4Cc4ccc[nH]c4=O)ccc3C2=O)C(=O)N1 (stereo partly drawn) [Compound I-50dp]
71.2,28.8,0.77,–,–,–,O=C1CCC(N2Cc3cc(OC[C@H]4CCCCN4Cc4ccccc4OCC(=O)N4CCCCC4)ccc3C2=O)C(=O)N1 (stereo partly drawn) [Compound I-50dq]
85.5,14.5,0.097,–,–,–,O=C1CCC(N2Cc3cc(OC[C@H]4CCCCN4Cc4ccnc(N5CCOCC5)c4)ccc3C2=O)C(=O)N1 (stereo partly drawn) [Compound I-50dr]
70.8,29.2,3.04,–,–,–,O=C1CCC(N2Cc3cc(OC[C@H]4CCCCN4Cc4c[nH]cn4)ccc3C2=O)C(=O)N1 (stereo partly drawn) [Compound I-50ds]
67,33,2.74,–,–,–,N#Cc1ccn2cc(CN3CCCC[C@@H]3COc3ccc4c(c3)CN(C3CCC(=O)NC3=O)C4=O)nc2c1 (stereo partly drawn) [Compound I-50dt]
78.4,21.6,4.26,–,–,–,Cc1nc(-c2cccc(CN3CCCC[C@@H]3COc3ccc4c(c3)CN(C3CCC(=O)NC3=O)C4=O)c2)no1 (stereo partly drawn) [Compound I-50du]
65,35,2.99,–,–,–,Cc1nnc(-c2ccc(CN3CCCC[C@@H]3COc3ccc4c(c3)CN(C3CCC(=O)NC3=O)C4=O)cc2)o1 (stereo partly drawn) [Compound I-50dv]
99,1,0.008,–,–,–,CC(C)Cn1cc(CN2CCCC[C@@H]2COc2ccc3c(c2)CN(C2CCC(=O)NC2=O)C3=O)cn1 (stereo partly drawn) [Compound I-50dw]
98,2,0.002,–,–,–,O=C1CCC(N2Cc3cc(OC[C@H]4CCCCN4Cc4ccc(N5CCOCC5)cc4)ccc3C2=O)C(=O)N1 (stereo partly drawn) [Compound I-50dx]
96.6,3.4,0.019,–,–,–,Cn1ccc2c(CN3CCCC[C@@H]3COc3ccc4c(c3)CN(C3CCC(=O)NC3=O)C4=O)cccc21 (stereo partly drawn) [Compound I-50dy]
62.8,37.2,3.27,–,–,–,N#Cc1ccccc1CN1CCCC[C@@H]1COc1ccc2c(c1)CN(C1CCC(=O)NC1=O)C2=O (stereo partly drawn) [Compound I-50dz]
41.1,58.9,> 25,–,–,–,O=C1CCC(N2Cc3cc(OC[C@@H]4CCCCN4Cc4cocn4)ccc3C2=O)C(=O)N1 (stereo partly drawn) [Compound I-50e]
81,19,0.651,–,–,–,CC(C)N1CCC(CN2CCCC[C@@H]2COc2ccc3c(c2)CN(C2CCC(=O)NC2=O)C3=O)CC1 (stereo partly drawn) [Compound I-50ea]
98.5,1.5,0.002,–,–,–,CCN(CC)c1ccc(CN2CCCC[C@@H]2COc2ccc3c(c2)CN(C2CCC(=O)NC2=O)C3=O)cn1 (stereo partly drawn) [Compound I-50eb]
